Patent US20160223547A1, “MARKER FOR PREDICTING METASTASIS OF BREAST CANCER” (priority 2013, published 2016)

Legend:
FN14 = assay: Immunohistochemistry of FN14 expression in triple-negative breast carcinoma grafts treated with lenalidomide; type: in vivo; conditions: triple-negative breast carcinoma graft in immunosuppressed mice, vs carrier control, anti-FN14 immunohistochemistry
Description: Experimental tumors induced in the breast of immunosuppressed mice by implanting small biopsy fragments (2×2 mm) from patients with triple-negative breast carcinoma. An example of one of these grafts treated with lenalidomide (LND) with respect to the same graft treated with the carrier (control) is shown.
For expression studies, the immunohistochemistry technique with specific anti-FN14 antibodies (sc-27143, C-13, Santa Cruz Biotechnology) at a concentration of 1/3000 was used. Kidney and heart tissues were used as control tissues to view the expression in the cell membrane. The antigens were exposed by heating the preparations in a pressure cooker for 7 minutes in the suitable citrate buffer (Sanz et al., Am J Pathol, 179(2):564-579, 2011).
The primary antibody was diluted in the Dako diluent buffer (Dako, Glostrup, Denmark; Carpinteria, Calif.): Tris buffer, pH 7.2, 15 mmol/1 of NaN3. The LSAB peroxidase system (Dako), including biotinylated secondary antibody, followed by conjugated streptavidin, was used along with the ultraView detection kit (Ventana Benchmark XT, Roche, Tucson, Ariz.). The tumors were classified in three categories considering staining intensity: negative, weakly positive and strongly positive. Only those which are strongly positive in more than 30% of the tumor cells were considered with the overexpressed protein.

[1] = tested on: brain metastases of breast cancer induced by BRV5CA1 cells; assay: Therapeutic effect on brain metastases induced by BRV5CA1 cells, luciferase emission monitored in vivo; conditions: female Athymic Nude-Foxn1nu mice, 50 mg/kg/d on consecutive days, after a week of treatment
Procedure: The therapeutic effect of lenalidomide was analyzed by treating the brain metastases of breast cancer induced by injecting BRV5CA1 cells labeled with the luciferase gene into female Athymic Nude-Foxnlnu mice (Martinez-Aranda A., Int. J. Mol. Sci. 2013, 14(4), 8306-8327). The treatment groups N=8 (lenalidomide 50 mg/kg/d on consecutive days) and the control group, in which carrier was injected, were established. The start of the treatment was established on day 14 after the graft and treatment was maintained for 15 days until the end of the experiment. The treatment was started on day 13 after induction and progression of the growth of metastasis was monitored in vivo by quantifying luciferase emission (photons per second) (FIG. 7). After a week of treatment, the difference in growth of the metastasis between the control group and the treated group was significant.

[2] = tested on: BRV5CA1 cells (clones 424-2 and 424-8, silenced GRP94; Pool, non-silenced GRP94); assay: MTT cytotoxicity assay of taxotere on brain metastatic breast cancer cells with silenced or non-silenced GRP94; type: cell-based; conditions: clones 424-2 and 424-8 (silenced GRP94) vs pool, 1-10 ng/ml, 72 h
Procedure: To […], three sublines were used: Clones: 424-2 and 424-8 (silenced GRP94 [shGRP94]) and a Pool (non-silenced GRP94), from the metastatic variant BRV5Ca1.
For the cytotoxicity assay, each cell type was seeded in triplicate in a 96-well plate (Costar® 3596; Corning Incorporated) at a density of 6000 cells/well in 50 μL of complete medium (DMEM/F12 GIBCO® with serum). Twenty-four hours after seeding the cells, they were treated with taxotere (docetaxel >99%; LC Laboratories (www.LCLabs.com); Stock 200 mg/ml), at different concentrations in triplicate: 10-5-2.5-1 and 0 ng/ml, in a volume of 50 μL/well. Seventy-two hours after the start of the treatment, a cell viability assay MTT was carried out in which survival expressed as a percentage (%) was analyzed (FIG. 2). […]
After this time, the medium was removed from the wells and 50 μL of MTT [3-(4,5-dimethylthiazol-2-yl)-2,5-diphenyltetrazolium bromide; Sigma-Aldrich) were added per well, at a concentration of 5 mg MTT/ml of medium without serum. […] It was left to stir for 10-15 minutes (in the dark) and was then analyzed in the microplate spectrophotometer (PowerWave™ XS; BioTek) at a wavelength of 540 nm.
Absorbance values (OD) were obtained in triplicate for each of the treatment concentrations established. The calculated mean was expressed in reference to the control thereof (0 ng/ml), considered as the maximum survival value (100%).

[3] = tested on: xenotransplant of breast cancer metastasizing to the brain; assay: Effect of taxotere on growth of intramammary xenografts; type: in vivo; conditions: Athymic Nude-Foxn1nu mice, 15 mg/kg/day every 4 days for two weeks, vs carrier control, p=0.003
Procedure: A xenotransplant of breast cancer metastasizing to the brain provided by Dr. Eva Gonzalez was used to induce breast tumors in immunosuppressed Athymic Nude-Foxnlnu mice weighing 22-28 grams acquired from Charles-River Laboratories (Wilmington, Mass.) and to establish groups that are treated or not treated with taxotere following a previously established standard protocol of 15 mg/kg/day every 4 days for two weeks (Bin Gu et al., Carcinogenesis, 2004). The 2 mm^3 tumor fragment was implanted in the inguinal breast of female mice and 10 days were waited out for the graft to progress. After evaluating the volume of the tumor, treatment with taxotere was started, considering in each case a control group which was treated with the drug carrier.

SMILES | expression of FN14 in tumor graft (FN14) | difference in growth of the metastasis between control group and treated group (luciferase emission, photons per second) [1] | survival of cells after treatment (percentage of survival with respect to the control) [2] | tumor growth (normalized volume divided by the initial volume) [3]
Nc1cccc2c1CN(C1CCC(=O)NC1=O)C2=O (centres unmarked) [lenalidomide] | inhibition of the expression of FN14 | significant | – | –
CC(=O)O[C@H]1C(=O)[C@@]2(C)[C@H]([C@H](OC(=O)c3ccccc3)[C@]3(O)C[C@H](OC(=O)[C@H](O)[C@@H](NC(=O)c4ccccc4)c4ccccc4)C(C)=C1C3(C)C)[C@]1(OC(C)=O)CO[C@@H]1C[C@@H]2O [taxol, 11-methano-5H-cyclodeca[3,4]benz[1,2-b]oxete benzenepropanoic acid deriv.] | – | – | lower survival | –
CC(=O)O[C@@]12CO[C@@H]1C[C@H](O)[C@@]1(C)C(=O)[C@H](O)C3=C(C)[C@@H](OC(=O)[C@H](O)[C@@H](NC(=O)OC(C)(C)C)c4ccccc4)C[C@@](O)([C@@H](OC(=O)c4ccccc4)[C@H]21)C3(C)C [taxotere, N-debenzoyl-N-tert-butoxycarbonyl-10-deacetyl taxol] | – | – | significantly reduces the survival | tendency to grow less than that of the control
